Measurements published in patent US12084472B2 (Ardelyx, Inc., priority 2015, dated 2024).

Target: T1, human TGR5 (Homo sapiens, UniProt Q8TDU6)
T1 construct: expressed in transfected cells; host or cells: HEK293
T1 sequence (Q8TDU6 1-330): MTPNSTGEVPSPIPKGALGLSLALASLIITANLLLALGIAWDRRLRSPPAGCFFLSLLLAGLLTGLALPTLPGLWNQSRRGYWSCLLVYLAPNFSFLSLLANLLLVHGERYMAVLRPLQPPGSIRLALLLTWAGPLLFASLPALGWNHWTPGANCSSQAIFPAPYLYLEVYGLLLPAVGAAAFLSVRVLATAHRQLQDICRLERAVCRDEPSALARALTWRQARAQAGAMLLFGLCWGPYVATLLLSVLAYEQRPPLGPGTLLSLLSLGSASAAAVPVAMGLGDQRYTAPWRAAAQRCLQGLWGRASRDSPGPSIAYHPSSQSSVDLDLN
Experiment: Cell-based TGR5 assay (cAMP generation, HTRF)
Details: HEK293 cells stably transfected with human TGR5; cAMP by HTRF; 30 minutes at 37° C.; read-out: pEC50 Human TGR5 (converted)
Summary of the method: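 Read-out was HTRF detection of cAMP, converted to concentration via a standard curve and fitted (3-parameter logistic) for pEC50 and maximal response. Agonist stimulation used HEK293 cells stably transfected with human TGR5, incubated 30 min at 37° C in IBMX-containing buffer at 0.05 nM to 10 μM compound.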

Structure (SMILES)	EC50
O=C([C@@H](O)[C@@H](O)[C@H](O)[C@@H](O)CO)N(CCCCSc1ccc(Cl)c(CNC2(c3cnccc3-c3ccccc3OC3CC3)CC2)c1)C1CCOCC1 [Compound I-535, (2S,3S,4R,5S)-N-[4-({4-chloro-3-[({1-[4-(2-cyclopropoxyphenyl)pyridin-3-yl]cyclopropyl}amino)methyl]phenyl}sulfanyl)butyl]-2,3,4,5,6-pentahydroxy-N-(oxan-4-yl)hexanamide]	126 to 1000 nM
Cc1ccc(SCCCN(C(=O)[C@@H](O)[C@@H](O)[C@H](O)[C@@H](O)CO)C2CCOCC2)cc1CNC1(c2cnccc2-c2ccccc2OC2CC2)CC1 [Compound I-547, (2S,3S,4R,5S)-N-[3-({3-[({1-[4-(2-cyclopropoxyphenyl)pyridin-3-yl]cyclopropyl}amino)methyl]-4-methylphenyl}sulfanyl)propyl]-2,3,4,5,6-pentahydroxy-N-(oxan-4-yl)hexanamide]	1260 to 10000 nM
CC(=O)NCCCCN(CCCSc1ccc(Cl)c(CNC2(c3cnccc3-c3ccccc3OC3CC3)CC2)c1)C(=O)[C@@H](O)[C@@H](O)[C@H](O)[C@@H](O)CO [Compound I-602, (2S,3S,4R,5S)-N-[3-({4-chloro-3-[({1-[4-(2-cyclopropoxyphenyl)pyridin-3-yl]cyclopropyl}amino)methyl]phenyl}sulfanyl)propyl]-N-(4-acetamidobutyl)-2,3,4,5,6-pentahydroxyhexanamide]	126 to 1000 nM
O=C(CCCCc1cc(Cl)c(COC2(c3cnccc3-c3ccccc3OC3CC3)CC2)cc1Cl)N(C[C@H](O)[C@@H](O)[C@H](O)[C@H](O)CO)C1CCOCC1 [Compound I-131, 5-[2,5-dichloro-4-({1-[4-(2-cyclopropoxyphenyl)pyridin-3-yl]cyclopropoxy}methyl)phenyl]-N-(oxan-4-yl)-N-[(2S,3R,4R,5R)-2,3,4,5,6-pentahydroxyhexyl]pentanamide]	< 100 nM
O=C(NCCCCCOc1ccc(Cl)c(COC2(c3cnccc3-c3ccccc3OC3CC3)CC2)c1)N[C@@H](CO)[C@@H](O)[C@H](O)[C@H](O)CO [Compound I-760, 1-(5-(4-chloro-3-((1-(4-(2-cyclopropoxyphenyl)pyridin-3-yl)cyclopropoxy)methyl)phenoxy)pentyl)-3-((2S,3R,4S,5R)-1,3,4,5,6-pentahydroxyhexan-2-yl)urea]	126 to 1000 nM
O=C(CCC1CCN(S(=O)(=O)c2ccc(Cl)c(COC3(c4cnccc4-c4ccccc4OC4CC4)CC3)c2)CC1)NC[C@H](O)[C@@H](O)[C@H](O)[C@H](O)CO [Compound I-449, 3-{1-[4-chloro-3-({1-[4-(2-cyclopropoxyphenyl)pyridin-3-yl]cyclopropoxy}methyl)benzenesulfonyl]piperidin-4-yl}-N-[(2S,3R,4R,5R)-2,3,4,5,6-pentahydroxyhexyl]propanamide]	< 100 nM
O=C(O)CCC(CCC(=O)O)(CCC(=O)O)NC(=O)CCCCc1cc(Cl)c(COC2(c3cnccc3-c3ccccc3OC3CC3)CC2)cc1Cl [Compound I-102, 4-(2-carboxyethyl)-4-{5-[2,5-dichloro-4-({1-[4-(2-cyclopropoxyphenyl)pyridin-3-yl]cyclopropoxy}methyl)phenyl]pentanamido}heptanedioic acid]	126 to 1000 nM
CCOc1cc(F)c(F)cc1-c1ccncc1C1(NCc2cc(Cl)ccc2Cl)CC1 [Compound I-15, N-[(2,5-dichlorophenyl)methyl]-1-[4-(2-ethoxy-4,5-difluorophenyl)pyridin-3-yl]cyclopropan-1-amine]	126 to 1000 nM
CN(C)C(=O)CN(C[C@H](O)[C@@H](O)[C@H](O)[C@H](O)CO)C(=O)CCCCc1cc(Cl)c(COC2(c3cnccc3-c3ccccc3OC3CC3)CC2)cc1Cl [Compound I-221, 5-[2,5-dichloro-4-({1-[4-(2-cyclopropoxyphenyl)pyridin-3-yl]cyclopropoxy}methyl)phenyl]-N-[(dimethylcarbamoyl)methyl]-N-[(2S,3R,4R,5R)-2,3,4,5,6-pentahydroxyhexyl]pentanamide]	< 100 nM
CN(CCCCNC(=O)NCCCCN(C)S(=O)(=O)c1ccc(Cl)c(COC2(c3cnccc3-c3ccccc3OC3CC3)CC2)c1)S(=O)(=O)c1ccc(Cl)c(COC2(c3cnccc3-c3ccccc3OC3CC3)CC2)c1 [Compound I-767, N,N′-((carbonylbis(azanediyl))bis(butane-4,1-diyl))bis(4-chloro-3-((1-(4-(2-cyclopropoxyphenyl)pyridin-3-yl)cyclopropoxy)methyl)-N-methylbenzenesulfonamide)]	126 to 1000 nM
Cc1ccc(CCCCC(=O)N(C)C[C@H](O)[C@@H](O)[C@H](O)[C@H](O)CO)cc1COC1(c2cnccc2-c2ccccc2OC2CC2)CC1 (stereo in doubt) [Compound I-236, 5-[3-({1-[4-(2-cyclopropoxyphenyl)pyridin-3-yl]cyclopropoxy}methyl)-4-methylphenyl]-N-methyl-N-[(2S,3R,4R,5R)-2,3,4,5,6-pentahydroxyhexyl]pentanamide]	< 100 nM
Clc1ccc(Cl)c(COC2(c3cnccc3-c3ccccc3OC3CC3)CCC2)c1 [Compound I-741, 4-(2-cyclopropoxyphenyl)-3-(1-((2,5-dichlorobenzyl)oxy)cyclobutyl)pyridine]	< 100 nM
CC(=O)N(CCSc1ccc(Cl)c(COC2(c3cnccc3-c3ccccc3OC3CC3)CC2)c1)C[C@H](O)[C@@H](O)[C@H](O)[C@H](O)CO [Compound I-505, N-(2-{[4-chloro-3-({1-[4-(2-cyclopropoxyphenyl)pyridin-3-yl]cyclopropoxy}methyl)phenyl]sulfanyl}ethyl)-N-[(2S,3R,4R,5R)-2,3,4,5,6-pentahydroxyhexyl]acetamide]	< 100 nM
CC(=O)N1CCCN(S(=O)(=O)c2ccc(Cl)c(COC3(c4cnccc4-c4ccccc4OC4CC4)CC3)c2)CC1 [Compound I-732, 1-(4-[[4-chloro-3-([1-[4-(2-cyclopropoxyphenyl)pyridin-3-yl]cyclopropoxy]methyl)benzene]sulfonyl]-1,4-diazepan-1-yl)ethan-1-one]	< 100 nM

More lines, now with the values ahead:

EC50	Structure (SMILES)
< 100 nM	CNC(=O)CN(C[C@H](O)[C@@H](O)[C@H](O)[C@H](O)CO)C(=O)CCCC(C)c1ccc(C)c(CNC2(c3cnccc3-c3ccccc3OC3CC3)CC2)c1 (stereo partly drawn) [Compound I-360, 5-{3-[({1-[4-(2-cyclopropoxyphenyl)pyridin-3-yl]cyclopropyl}amino)methyl]-4-methylphenyl}-N-[(methylcarbamoyl)methyl]-N-[(2S,3R,4R,5R)-2,3,4,5,6-pentahydroxyhexyl]hexanamide]
< 100 nM	Clc1ccc(Cl)c(CNC2(c3cnccc3-c3ccccc3OC3COC3)CC2)c1 [Compound I-19, N-[(2,5-dichlorophenyl)methyl]-1-{4-[2-(oxetan-3-yloxy)phenyl]pyridin-3-yl}cyclopropan-1-amine]
126 to 1000 nM	CN(C[C@H](O)[C@@H](O)[C@H](O)[C@H](O)CO)C(=O)CCN(CCC(=O)N(C)C[C@H](O)[C@@H](O)[C@H](O)[C@H](O)CO)C(=O)CCCCc1cc(Cl)c(COC2(c3cnccc3-c3ccccc3OC3CC3)CC2)cc1Cl [Compound I-169, 5-[2,5-dichloro-4-({1-[4-(2-cyclopropoxyphenyl)pyridin-3-yl]cyclopropoxy}methyl)phenyl]-N,N-bis(2-{methyl[(2S,3R,4R,5R)-2,3,4,5,6-pentahydroxyhexyl]carbamoyl}ethyl)pentanamide]
< 100 nM	Cc1ccc(C(C)CCCC(=O)N(C)C[C@H](O)[C@@H](O)[C@H](O)[C@H](O)CO)cc1CNC1(c2cnccc2-c2ccccc2OC2CC2)CC1 (stereo partly drawn) [Compound I-352, 5-{3-[({1-[4-(2-cyclopropoxyphenyl)pyridin-3-yl]cyclopropyl}amino)methyl]-4-methylphenyl}-N-methyl-N-[(2S,3R,4R,5R)-2,3,4,5,6-pentahydroxyhexyl]hexanamide]
< 100 nM	O=C(O)CN1CCN(C(=O)CCCCc2cc(Cl)c(COC3(c4cnccc4-c4ccccc4OC4CC4)CC3)cc2Cl)CC1 [Compound I-88, 2-(4-(5-(2,5-dichloro-4-((1-(4-(2-cyclopropoxyphenyl)pyridin-3-yl)cyclopropoxy)methyl)phenyl)pentanoyl)piperazin-1-yl)acetic acid]
126 to 1000 nM	Cc1ccc(SCCCCC(=O)N(C)C[C@H](O)[C@@H](O)[C@H](O)[C@H](O)CO)nc1CNC1(c2cnccc2-c2ccccc2OC2CC2)CC1 [Compound I-495, 5-([6-[([1-[4-(2-Cyclopropoxyphenyl)pyridin-3-yl]cyclopropyl]amino)methyl]-5-methylpyridin-2-yl]sulfanyl)-N-methyl-N-[(2S,3R,4R,5R)-2,3,4,5,6-pentahydroxyhexyl]pentanamide]
< 100 nM	C[C@@H](CCCCNC(=O)N[C@@H](CO)[C@@H](O)[C@H](O)[C@H](O)CO)c1ccc(Cl)c(COC2(c3cnccc3-c3ccccc3OC3CC3)CC2)c1 [Compound I-263]
< 100 nM	CC(CCCCNC(=O)NC[C@H](O)[C@@H](O)[C@H](O)[C@H](O)CO)c1ccc(Cl)c(CNC2(c3cnccc3-c3ccccc3OC3CC3)CC2)c1 (stereo partly drawn) [Compound I-267, 1-(5-{4-chloro-3-[({1-[4-(2-cyclopropoxyphenyl)pyridin-3-yl]cyclopropyl}amino)methyl]phenyl}hexyl)-3-[(2S,3R,4R,5R)-2,3,4,5,6-pentahydroxyhexyl]urea]
< 100 nM	CN(CCCCCSc1ccc(Cl)c(COC2(c3cnccc3-c3ccccc3OC3CC3)CC2)c1)C(=O)[C@@H](O)[C@@H](O)[C@H](O)[C@@H](O)CO [Compound I-509, (2S,3S,4R,5S)-N-(5-{[4-chloro-3-({1-[4-(2-cyclopropoxyphenyl)pyridin-3-yl]cyclopropoxy}methyl)phenyl]sulfanyl}pentyl)-2,3,4,5,6-pentahydroxy-N-methylhexanamide]
